Biological target: Glucagon-like peptide 1 receptor (Homo sapiens, UniProt P43220)
Test: GLP-1R agonist cAMP stimulation Assay
Description: cAMP Detection Kit, Cisbio (Cat #62AM4PEJ).

Sequence of Glucagon-like peptide 1 receptor (P43220 whole entry): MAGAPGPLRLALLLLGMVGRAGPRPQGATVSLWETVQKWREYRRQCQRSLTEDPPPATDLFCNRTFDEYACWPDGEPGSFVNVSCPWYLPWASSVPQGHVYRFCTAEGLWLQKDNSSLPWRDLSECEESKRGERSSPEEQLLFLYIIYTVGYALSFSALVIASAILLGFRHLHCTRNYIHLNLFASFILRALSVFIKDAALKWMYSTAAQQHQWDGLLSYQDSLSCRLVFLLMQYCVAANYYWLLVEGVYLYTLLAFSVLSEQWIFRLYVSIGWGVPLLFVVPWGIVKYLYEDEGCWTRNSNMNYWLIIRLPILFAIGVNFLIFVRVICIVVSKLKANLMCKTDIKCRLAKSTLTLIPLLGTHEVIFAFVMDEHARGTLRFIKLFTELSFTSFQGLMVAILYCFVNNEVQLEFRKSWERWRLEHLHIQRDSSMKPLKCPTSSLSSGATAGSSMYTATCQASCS

Cc1coc2c(COc3cccc(C4=CCN(Cc5nc6cc(C(=O)Nc7cc(F)c8c(c7)C7(CC7)C(=O)N8)ccc6n5C[C@@H]5CCO5)CC4)n3)ccc(C#N)c12 [US20230271949, Example 351]
EC50: 190 pM
